From US12480137B2, “Plants having increased tolerance to herbicides” (BASF SE, priority 2014, dated 2025)

What was measured:
Format in all cases: in vivo, Arabidopsis thaliana
[1] = test system: Arabidopsis mutant line Cesa1_G1009D; test: Growth inhibition of Arabidopsis lines in 48-well plates, tolerance factor from IC50; details: growth inhibition seven to ten days after seeding
Description: (§1) For selection of cellulose biosynthesis inhibitor resistant plants EMS mutagenized seed populations of Arabidopsis thaliana are used. EMS mutagenized seed populations are either bought from Lehle Seeds (1102 South Industrial Blvd. Suite D, Round Rock, Texas USA) or are generated as described elsewhere (Heim D R, et. al. (1989) Plant Physiol. 90: 146-150). Causative mutations in CESA wildtype sequences (e.g. SEQ ID NO: 1 or 3) are identified as described by Scheible W R et. al. (2001, Proc. Natl. Acad. of Sci. 98: 10079-10084), McCourt et. al. (WO2013/142968) or with the use of next generation sequencing methods as described by Austin R S, et. al. (2011) Plant Journal 67: 715-725.
(§2) Selected Arabidopsis thaliana lines were assayed for improved resistance to azines like 6-cyclopentyl-N4-(2,3,4,5,6-pentafluorophenyl)-1,3,5-triazine-2,4-diamine; 6-(1-fluoro-1-methyl-ethyl)-N4-(2,3,4,5,6-pentafluorophenyl)-1,3,5-triazine-2,4-diamine; 6-cyclohexyl-N2-(2,3,4,5,6-pentafluorophenyl)-1,3,5-triazine-2,4-diamine; 6-(2,6-difluorophenyl)-N2-(2,3,5,6-tetrafluorophenyl)-1,3,5-triazine-2,4-diamine; N2-(4-chloro-3,5,6-trifluoro-2-pyridyl)-6-(1-fluoro-1-methyl-ethyl)-1,3,5-triazine-2,4-diamine in 48-well plates. Therefore, M2 or M3 seeds are surface sterilized by stirring for 5 min in ethanol+water (70+30 by volume), rinsing one time with ethanol+water (70+30 by volume) and two times with sterile, deionized water. The seeds are resuspended in 0.1% agar dissolved in water (w/v) Four to five seeds per well are plated on solid nutrient medium consisting of half-strength murashige skoog nutrient solution, pH 5.8 (Murashige and Skoog (1962) Physiologia Plantarum 15: 473-497). Compounds are dissolved in dimethylsulfoxid (DMSO) and added to the medium prior solidification (final DMSO concentration 0.1%). Multi well plates are incubated in a growth chamber at 22° C., 75% relative humidity and 110 μmol Phot*m^−2*s^−1 with 14:10 h light:dark photoperiod. Growth inhibition is evaluated seven to ten days after seeding in comparison to wild type plants. Tolerance factors are calculated based on IC50 values of growth inhibition of transformed versus non-transformed Arabidopsis plants (Table 3).

[2] = test system: Arabidopsis mutant line Cesa1_G1013R; test: as above; details: growth inhibition seven to ten days after seeding
Description: as §1, §2

[3] = test system: Arabidopsis mutant line Cesa1_P1010L; test: as above; details: growth inhibition seven to ten days after seeding
Description: as §1, §2

[4] = test system: Arabidopsis mutant line Cesa3_S1037F; test: as above; details: growth inhibition seven to ten days after seeding
Description: as §1, §2

[5] = test system: Arabidopsis mutant line Cesa3_S1040L; test: as above; details: growth inhibition seven to ten days after seeding
Description: as §1, §2

[6] = test system: Arabidopsis mutant line Cesa3_S983F; test: as above; details: growth inhibition seven to ten days after seeding
Description: as §1, §2

[7] = test system: wildtype Arabidopsis plants; test: as above; details: growth inhibition seven to ten days after seeding
Description: as §1, §2

A. thaliana WT L. erecta = test: Greenhouse phytotox, pre-emergent treatment
Protocol: (§3) Additionally, M2 or M3 Arabidopsis plants are tested for improved tolerance to cellulose biosynthesis-inhibiting herbicides in greenhouse studies (e. g. with the following cellulose biosynthesis-inhibiting herbicides: 6-cyclopentyl-N4-(2,3,4,5,6-pentafluorophenyl)-1,3,5-triazine-2,4-diamine; 6-(1-fluoro-1-methyl-ethyl)-N4-(2,3,4,5,6-pentafluorophenyl)-1,3,5-triazine-2,4-diamine; N4-(4-chloro-3,5,6-trifluoro-2-pyridyl)-6-(1-fluoro-1-methyl-ethyl)-1,3,5-triazine-2,4-diamine; 6-(2,6-difluorophenyl)-N4-(2,3,5,6-tetrafluorophenyl)-1,3,5-triazine-2,4-diamine; N4-(4-bromo-2,3,5,6-tetrafluoro-phenyl)-6-(1-fluoro-1-methyl-ethyl)-1,3,5-triazine-2,4-diamine.

[8] = test system: Cesa1_G1009D, fpx2-3 mutant line; test: Greenhouse phytotox, pre-emergent treatment
Protocol: as §3

[9] = test system: Cesa1_G1013R, fpx2-1 mutant line; test: Greenhouse phytotox, pre-emergent treatment
Protocol: as §3

[10] = test system: Cesa1_P1010L, fpx2-2 mutant line; test: Greenhouse phytotox, pre-emergent treatment
Protocol: as §3

[11] = test system: Cesa3_S1037F, fpx1-2 mutant line; test: Greenhouse phytotox, pre-emergent treatment
Protocol: as §3

[12] = test system: Cesa3_S1040L, fpx1-1 mutant line; test: Greenhouse phytotox, pre-emergent treatment
Protocol: as §3

[13] = test system: Cesa3_S983F, fpx1-3 mutant line; test: Greenhouse phytotox, pre-emergent treatment
Protocol: as §3

| SMILES | Relative tolerance rate (wildtype = 1.0) [1] | Relative tolerance rate (wildtype = 1.0) [2] | Relative tolerance rate (wildtype = 1.0) [3] | Relative tolerance rate (wildtype = 1.0) [4] | Relative tolerance rate (wildtype = 1.0) [5] | Relative tolerance rate (wildtype = 1.0) [6] | Relative tolerance rate (wildtype = 1.0) [7] | Phytotox value on a scale from 0-100 (100 is 100% damage) (A. thaliana WT L. erecta; 0.25 g ai/ha) | Phytotox value on a scale from 0-100 (100 is 100% damage) (A. thaliana WT L. erecta; 0.98 g ai/ha) | Phytotox value on a scale from 0-100 (100 is 100% damage) (A. thaliana WT L. erecta; 3.91 g ai/ha) | Phytotox value on a scale from 0-100 (100 is 100% damage) ([8]; 0.25 g ai/ha) | Phytotox value on a scale from 0-100 (100 is 100% damage) ([8]; 0.98 g ai/ha) | Phytotox value on a scale from 0-100 (100 is 100% damage) ([8]; 3.91 g ai/ha) | Phytotox value on a scale from 0-100 (100 is 100% damage) ([9]; 0.25 g ai/ha) | Phytotox value on a scale from 0-100 (100 is 100% damage) ([9]; 0.98 g ai/ha) | Phytotox value on a scale from 0-100 (100 is 100% damage) ([9]; 3.91 g ai/ha) | Phytotox value on a scale from 0-100 (100 is 100% damage) ([10]; 0.25 g ai/ha) | Phytotox value on a scale from 0-100 (100 is 100% damage) ([10]; 0.98 g ai/ha) | Phytotox value on a scale from 0-100 (100 is 100% damage) ([10]; 3.91 g ai/ha) | Phytotox value on a scale from 0-100 (100 is 100% damage) ([11]; 0.25 g ai/ha) | further results |
| --- | --- | --- | --- | --- | --- | --- | --- | --- | --- | --- | --- | --- | --- | --- | --- | --- | --- | --- | --- | --- | --- |
| CC(C)(F)c1nc(N)nc(Nc2c(F)c(F)c(F)c(F)c2F)n1 [6-(1-fluoro-1-methyl-ethyl)-N4-(2,3,4,5,6-pentafluorophenyl)-1,3,5-triazine-2,4-diamine] | 2 | 4 | 1 | 4 | 2 | 1 | 1 | 78 | 100 | 100 | 78 | 97 | 100 | 65 | 63 | 97 | 50 | 99 | 100 | 20 | Phytotox value on a scale from 0-100 (100 is 100% damage) (A. thaliana WT L. erecta; 0.0625 g ai/ha): 38; Phytotox value on a scale from 0-100 (100 is 100% damage) ([8]; 0.0625 g ai/ha): 65; Phytotox value on a scale from 0-100 (100 is 100% damage) ([9]; 0.0625 g ai/ha): 13; Phytotox value on a scale from 0-100 (100 is 100% damage) ([10]; 0.0625 g ai/ha): 43; Phytotox value on a scale from 0-100 (100 is 100% damage) ([11]; 0.0625 g ai/ha): 10; Phytotox value on a scale from 0-100 (100 is 100% damage) ([11]; 0.98 g ai/ha): 30; Phytotox value on a scale from 0-100 (100 is 100% damage) ([11]; 3.91 g ai/ha): 80; Phytotox value on a scale from 0-100 (100 is 100% damage) ([12]; 0.0625 g ai/ha): 20; Phytotox value on a scale from 0-100 (100 is 100% damage) ([12]; 0.25 g ai/ha): 65; Phytotox value on a scale from 0-100 (100 is 100% damage) ([12]; 0.98 g ai/ha): 75; Phytotox value on a scale from 0-100 (100 is 100% damage) ([12]; 3.91 g ai/ha): 98; Phytotox value on a scale from 0-100 (100 is 100% damage) ([13]; 0.0625 g ai/ha): 78; Phytotox value on a scale from 0-100 (100 is 100% damage) ([13]; 0.25 g ai/ha): 45; Phytotox value on a scale from 0-100 (100 is 100% damage) ([13]; 0.98 g ai/ha): 75; Phytotox value on a scale from 0-100 (100 is 100% damage) ([13]; 3.91 g ai/ha): 98 |
| Nc1nc(Nc2c(F)c(F)c(F)c(F)c2F)nc(C2CCCCC2)n1 [6-cyclohexyl-N2-(2,3,4,5,6-pentafluorophenyl)-1,3,5-triazine-2,4-diamine] | 1 | 4 | 1 | 1 | 10 | 1 | 1 |  |  |  |  |  |  |  |  |  |  |  |  |  |  |
| CC(C)(F)c1nc(N)nc(Nc2c(F)c(F)c(Br)c(F)c2F)n1 [N4-(4-bromo-2,3,5,6-tetrafluoro-phenyl)-6-(1-fluoro-1-methyl-ethyl)-1,3,5-triazine-2,4-diamine] |  |  |  |  |  |  |  | 8 | 35 | 97 | 50 | 35 | 68 | 10 | 10 | 35 | 25 | 25 | 88 | 28 | Phytotox value on a scale from 0-100 (100 is 100% damage) (A. thaliana WT L. erecta; 15.63 g ai/ha): 100; Phytotox value on a scale from 0-100 (100 is 100% damage) ([8]; 15.63 g ai/ha): 99; Phytotox value on a scale from 0-100 (100 is 100% damage) ([9]; 15.63 g ai/ha): 73; Phytotox value on a scale from 0-100 (100 is 100% damage) ([10]; 15.63 g ai/ha): 99; Phytotox value on a scale from 0-100 (100 is 100% damage) ([11]; 0.98 g ai/ha): 18; Phytotox value on a scale from 0-100 (100 is 100% damage) ([11]; 3.91 g ai/ha): 33; Phytotox value on a scale from 0-100 (100 is 100% damage) ([11]; 15.63 g ai/ha): 30; Phytotox value on a scale from 0-100 (100 is 100% damage) ([12]; 0.25 g ai/ha): 13; Phytotox value on a scale from 0-100 (100 is 100% damage) ([12]; 0.98 g ai/ha): 5; Phytotox value on a scale from 0-100 (100 is 100% damage) ([12]; 3.91 g ai/ha): 63; Phytotox value on a scale from 0-100 (100 is 100% damage) ([12]; 15.63 g ai/ha): 93; Phytotox value on a scale from 0-100 (100 is 100% damage) ([13]; 0.25 g ai/ha): 35; Phytotox value on a scale from 0-100 (100 is 100% damage) ([13]; 0.98 g ai/ha): 23; Phytotox value on a scale from 0-100 (100 is 100% damage) ([13]; 3.91 g ai/ha): 25; Phytotox value on a scale from 0-100 (100 is 100% damage) ([13]; 15.63 g ai/ha): 45 |
